Source: the OligoGym collection
“And” between values parts separate entries of the source, which are not always exact repeats. Equal values may be shown once. After the bases stand the sugars from the 5' end (letter, count) and the backbone: PS all phosphorothioate, else s phosphorothioate and o phosphodiester by linkage. Methylation of C is not given here. e = 2'-O-(2-methoxyethyl) (MOE); k = constrained ethyl (cEt); d = 2'-deoxy (DNA); m = 2'-O-methyl

These sequences were tested against HSD17B13. Conditions: ASO, HepaRG, 0.02 µM.

“GTTGATATTCTGTGGC (sugars k3 d9 k3 e1, PS)” and GTTGATATTCTGTGGC (sugars k3 d10 k3, PS) are the same in target mRNA inhibition: 23% for the first, 23% for the second.

“TAAAATAGAGTCGGTC (sugars k3 d9 k3 e1, PS)” was tested, and the target mRNA inhibition was 0%.

Same assay, conditions: ASO, HepaRG, 0.078 µM

Going from “GTTGATATTCTGTGGC (sugars k3 d9 k3 e1, PS)” to GTTGATATTCTGTGGC (sugars k3 d10 k3, PS), the target mRNA inhibition rises from 17% to 42%.

“TAAAATAGAGTCGGTC (sugars k3 d9 k3 e1, PS)” gave a target mRNA inhibition of 12%.

Same assay, conditions: ASO, HepaRG, 0.313 µM

First: GTTGATATTCTGTGGC (sugars k3 d9 k3 e1, PS)
Second: GTTGATATTCTGTGGC (sugars k3 d10 k3, PS)
The target mRNA inhibition of the first is lower: 49% for the first, 53% for the second.

“TAAAATAGAGTCGGTC (sugars k3 d9 k3 e1, PS)” showed a target mRNA inhibition of 31%.

Same assay, conditions: ASO, HepaRG, 1 µM

First: GTTCAGTCCTTGTGTA (sugars k3 d10 k3, PS)
Second: GTTCTTATCCACACCT (sugars k3 d10 k3, PS)
The target mRNA inhibition of the first is lower: 38% for the first, 57% for the second.

First: GTTGAGATAAAGCTGC (sugars k3 d1 m1 d8 k3, PS)
Second: GTTGAGATAAAGCTGC (sugars kkdddddddddkekek, PS)
The target mRNA inhibition of the first is higher: 51% for the first, 40% for the second.

Going from GTTGATATTCTGTGGC (sugars k3 d10 k3, PS) to “GTTGCACCGTTTTGGG (sugars kkdddddddddkekek, PS)”, the target mRNA inhibition falls from 80% to 35%.

First: GTTTATCAGTAAAGTG (sugars k3 d10 k3, PS)
Second: GTTTTGCAAGTTTATC (sugars k3 d10 k3, PS)
The target mRNA inhibition of the first is lower: 64% for the first, 73% for the second.

First: GTTTUTAAGAGGCATG (sugars k3 d1 m1 d8 k3, PS)
Second: TAAAAAATTGGTTTCG (sugars k3 d10 k3, PS)
The target mRNA inhibition of the first is higher: 38% for the first, 22% for the second.

Compared with “TAAAATAGAGTCGGTC (sugars k3 d1 m1 d8 k3, PS)”, “TAAAATAGAGTCGGTC (sugars k3 d9 k3 e1, PS)” is higher in target mRNA inhibition: 52% for the first, 74% for the second.

Compared with TAAACAATATTAAGGG (sugars k3 d10 k3, PS), TAAACATAGGCTTAGT (sugars k3 d10 k3, PS) is higher in target mRNA inhibition: 0% for the first, 34% for the second.

First: TAAACATCTCTGGGAC (sugars k3 d9 k3 e1, PS)
Second: TAAACCTTCCCTGTGT (sugars k3 d1 m1 d8 k3, PS)
The target mRNA inhibition of the first is lower: 32% for the first, 46% for the second.

First: TAAACTAAAGTACTTG (sugars k3 d10 k3, PS)
Second: TAAACTAGTGGTAATG (sugars k3 d10 k3, PS)
The target mRNA inhibition of the first is lower: 1% for the first, 14% for the second.

Going from TAAATACCCTTGGTGG (sugars k3 d10 k3, PS) to TAAATCAGGCAGTCAT (sugars k3 d10 k3, PS), the target mRNA inhibition rises from 7% to 35%.

Going from TAACTACATGACCTGG (sugars k3 d10 k3, PS) to TAACTGAGCTAGACAA (sugars k3 d10 k3, PS), the target mRNA inhibition rises from 37% to 53%.

First: TAAGAGGCATGAAAGG (sugars kkdddddddddkekek, PS)
Second: TAAGATACCCAGGTTG (sugars k3 d1 m1 d8 k3, PS)
The target mRNA inhibition of the first is higher: 54% for the first, 11% for the second.

Compared with “TAAGCAGAATTGTGAA (sugars k3 d9 k3 e1, PS)”, “TAAGCTGAGAGTTCTA (sugars k3 d1 m1 d8 k3, PS)” is lower in target mRNA inhibition: 52% for the first, 27% for the second.

Going from “TAAGCTGAGAGTTCTA (sugars kkdddddddddkekek, PS)” to TAAGGATCATTGCAGA (sugars k3 d10 k3, PS), the target mRNA inhibition falls from 29% to 0%.

First: TAAGTAGTCTGCCTGC (sugars k3 d10 k3, PS)
Second: TAAGTATTCCATCTAT (sugars k3 d10 k3, PS)
The target mRNA inhibition of the first is lower: 19% for the first, 31% for the second.

First: TAATACATTAGCAAGC (sugars k3 d1 m1 d8 k3, PS)
Second: TAATAGCCAGTACAGT (sugars k3 d1 m1 d8 k3, PS)
The target mRNA inhibition of the first is lower: 26% for the first, 51% for the second.

Compared with “TAATAGCCAGTACAGT (sugars kkdddddddddkekek, PS)”, TAATCATGGGACAGGA (sugars k3 d10 k3, PS) is lower in target mRNA inhibition: 44% for the first, 15% for the second.

First: TAATCTTGTGCTTGGA (sugars k3 d10 k3, PS)
Second: TAATGTATGAGGTCTC (sugars k3 d10 k3, PS)
The target mRNA inhibition of the first is higher: 54% for the first, 51% for the second.

Compared with TAATTAATCTTGTTCG (sugars k3 d10 k3, PS), TAATTCTAAACTAGTG (sugars k3 d10 k3, PS) is lower in target mRNA inhibition: 63% for the first, 11% for the second.

First: TACATATCAATGCCTT (sugars k3 d10 k3, PS)
Second: TACCAAGAGGGTTTTT (sugars k3 d10 k3, PS)
The target mRNA inhibition of the first is higher: 38% for the first, 17% for the second.

Compared with TACTATTCTCCAACTC (sugars k3 d10 k3, PS), TACTTACTTCTGTAGT (sugars k3 d10 k3, PS) is lower in target mRNA inhibition: 47% for the first, 12% for the second.

Going from “TAGAATAGTCTTCAGC (sugars k3 d9 k3 e1, PS)” to TAGAATTAAGGGCTAT (sugars k3 d10 k3, PS), the target mRNA inhibition falls from 50% to 31%.

First: TAGAATTGTCTGTTAG (sugars k3 d10 k3, PS)
Second: TAGAGAGCATAAGTTA (sugars k3 d10 k3, PS)
The target mRNA inhibition of the first is lower: 9% for the first, 59% for the second.

First: TAGAGAGCGATAGATC (sugars k3 d10 k3, PS)
Second: TAGAGTCGGTCACCTT (sugars kkdddddddddkekek, PS)
The target mRNA inhibition of the first is lower: 22% for the first, 48% for the second.

First: TAGCCAGTACAGTTCC (sugars k3 d1 m1 d8 k3, PS)
Second: TAGCCAGTACAGTTCC (sugars k3 d10 k3, PS)
The target mRNA inhibition of the first is higher: 70% for the first, 52% for the second.

First: TAGCCAGTACAGTTCC (sugars kkdddddddddkekek, PS)
Second: TAGCTAATGTATGAGG (sugars k3 d10 k3, PS)
The target mRNA inhibition of the first is higher: 57% for the first, 48% for the second.

Going from TAGCTATTGTCTTTGA (sugars k3 d10 k3, PS) to TAGCTTAAACTCCAAT (sugars k3 d10 k3, PS), the target mRNA inhibition falls from 63% to 60%.

Going from TAGCTTTTGTCCACCT (sugars k3 d10 k3, PS) to TAGGAAAGCTCATGGT (sugars k3 d10 k3, PS), the target mRNA inhibition falls from 60% to 27%.

Going from TAGGAGTAGATGATGG (sugars k3 d10 k3, PS) to TAGGATTAATCATGGG (sugars k3 d10 k3, PS), the target mRNA inhibition rises from 15% to 47%.

Compared with TAGGCTAAACCCTGGA (sugars k3 d10 k3, PS), TAGGTAGCTAATGTAT (sugars k3 d10 k3, PS) is lower in target mRNA inhibition: 64% for the first, 34% for the second.

Compared with “TAGTAATCACAAGTAA (sugars k3 d9 k3 e1, PS)”, TAGTAATTGCATCTGC (sugars k3 d10 k3, PS) is lower in target mRNA inhibition: 65% for the first, 51% for the second.

Going from TAGTAATTGCTATAGT (sugars k3 d10 k3, PS) to TAGTACCAAGACACTA (sugars k3 d10 k3, PS), the target mRNA inhibition rises from 7% to 27%.

Compared with “TAGTATAGTTATCTTC (sugars k3 d9 k3 e1, PS)”, “TAGTATAGTTATCTTC (sugars kkdddddddddkekek, PS)” is higher in target mRNA inhibition: 28% for the first, 34% for the second.

Going from TAGTCTGCCTGCCTAT (sugars k3 d10 k3, PS) to “TAGTCTTCAGCAAAGT (sugars k3 d1 m1 d8 k3, PS)”, the target mRNA inhibition falls from 44% to 41%.

Going from TAGTCTTGATGTAGTG (sugars k3 d10 k3, PS) to “TAGTCTTGATGTAGTG (sugars kkdddddddddkekek, PS)”, the target mRNA inhibition falls from 55% to 43%.

First: TAGTGGACTTCATTAG (sugars kkdddddddddkekek, PS)
Second: TAGTGGGAGTCGGATT (sugars k3 d10 k3, PS)
The target mRNA inhibition of the first is lower: 41% for the first, 54% for the second.

Going from TAGTGTAGAATTGTCT (sugars k3 d10 k3, PS) to TAGTTTTCGGCACTCA (sugars k3 d10 k3, PS), the target mRNA inhibition falls from 46% to 35%.

First: TATAACTGGAAGGAGG (sugars k3 d10 k3, PS)
Second: TATAATTACAACCTGG (sugars k3 d10 k3, PS)
The target mRNA inhibition of the first is lower: 44% for the first, 46% for the second.

First: TATAGACTGGGTAGGA (sugars k3 d9 k3 e1, PS)
Second: TATAGACTGGGTAGGA (sugars k3 d10 k3, PS)
The target mRNA inhibition of the first is lower: 55% for the first, 61% for the second.

Compared with TATAGCTAAGTATACT (sugars k3 d10 k3, PS), “TATAGTTATCTTCTCA (sugars k3 d9 k3 e1, PS)” is higher in target mRNA inhibition: 23% for the first, 59% for the second.

Going from TATCAAAATGGTGGCG (sugars k3 d10 k3, PS) to “TATCAGACTTCTTACG (sugars k3 d1 m1 d8 k3, PS)”, the target mRNA inhibition rises from 18% to 27%.

Going from “TATCAGACTTCTTACG (sugars k3 d9 k3 e1, PS)” to TATCAGACTTCTTACG (sugars k3 d10 k3, PS), the target mRNA inhibition rises from 28% to 59%.

Going from “TATCAGACTTCTTACG (sugars kkdddddddddkekek, PS)” to TATGGTAAGCCCCATG (sugars k3 d10 k3, PS), the target mRNA inhibition falls from 32% to 30%.

Compared with TATGTAATAGGCAGTA (sugars k3 d10 k3, PS), TATGTCCAGGTTGAGA (sugars k3 d10 k3, PS) is higher in target mRNA inhibition: 62% for the first, 64% for the second.

Compared with TATGTGAAGAGCTGGT (sugars k3 d10 k3, PS), “TATGTGATTGAGTTCT (sugars k3 d9 k3 e1, PS)” is lower in target mRNA inhibition: 63% for the first, 43% for the second.

Compared with TATGTGATTGAGTTCT (sugars k3 d10 k3, PS), “TATGUGATTGAGTTCT (sugars k3 d1 m1 d8 k3, PS)” is lower in target mRNA inhibition: 28% for the first, 21% for the second.

Going from TATTAAGACAGTTGAG (sugars k3 d10 k3, PS) to TATTAATATGACTTGC (sugars k3 d10 k3, PS), the target mRNA inhibition falls from 44% to 25%.

First: TATTAGTTGGCCTGCC (sugars k3 d10 k3, PS)
Second: TATTATCAGGACTGAA (sugars k3 d10 k3, PS)
The target mRNA inhibition of the first is lower: 14% for the first, 63% for the second.

Going from TATTATGCACTCTATA (sugars k3 d10 k3, PS) to TATTCACCACGATTGT (sugars k3 d10 k3, PS), the target mRNA inhibition falls from 9% to 2%.

First: TATTGGTAAGTATTCC (sugars k3 d9 k3 e1, PS)
Second: TATTGGTAAGTATTCC (sugars k3 d10 k3, PS)
The target mRNA inhibition of the first is lower: 48% for the first, 67% for the second.

Compared with TATTTAGGGCAAACCT (sugars k3 d10 k3, PS), TATTTCTTGCGAGAAA (sugars k3 d10 k3, PS) is lower in target mRNA inhibition: 40% for the first, 30% for the second.

With TCAAAATGGTGGCGAG (sugars k3 d10 k3, PS) the target mRNA inhibition was 31%.

For “GTTGATATTCTGTGGC (sugars k3 d9 k3 e1, PS)”, the target mRNA inhibition was 73% and 50%.

Same assay, conditions: ASO, HepaRG, 1.25 µM

First: GTTGATATTCTGTGGC (sugars k3 d9 k3 e1, PS)
Second: GTTGATATTCTGTGGC (sugars k3 d10 k3, PS)
The target mRNA inhibition of the first is lower: 61% for the first, 87% for the second.

“TAAAATAGAGTCGGTC (sugars k3 d9 k3 e1, PS)” showed a target mRNA inhibition of 55%.

Same assay, conditions: ASO, HepaRG, 5 µM

Compared with “GTTGATATTCTGTGGC (sugars k3 d9 k3 e1, PS)”, GTTGATATTCTGTGGC (sugars k3 d10 k3, PS) is higher in target mRNA inhibition: 55% for the first, 93% for the second.

Sequence “TAAAATAGAGTCGGTC (sugars k3 d9 k3 e1, PS)” has a target mRNA inhibition of 77%.
